The results in this text go back to article PMC12123601, “Light-Induced, Lysine-Targeting Irreversible Covalent Inhibition of the Human Oxygen Sensing Hydroxylase Factor Inhibiting HIF (FIH)” (Journal of the American Chemical Society, 2025).

Molecules are shown by their SMILES. Values joined by “and” are separate entries in the source; they are usually repeats but may differ in a detail not shown here. Equal values may be shown once. Read-outs that look alike come from different tables or passages of the source.

The assay addresses T1, FIH^WT (Homo sapiens, UniProt Q9NWT6).
T1 construct: pET28a vectors encoding for full-length FIH with an N-terminal His6 tag; His6 (N); host or cells: Escherichia coli BL21
Briefly: Affinity-based fluorescence polarization (FP) assay with FIH WT, without and with 365 nm irradiation. The following applies: read-out: Binding affinity to FIH^WT: Ki. From the text:
We also performed a reported affinity-based fluorescence polarization (FP) assay (Figure S6) , under light activation to measure the binding affinity of NBA-ZG-2291 to FIH (Figure A). […] These observations are consistent with the intact protein MS analyzes. We also evaluated the binding affinities of two negative controls to FIH, which were designed not to covalently react with Lys106.
4 (A) Light-induced click conjugation between NBA-ZG-2291 and FIH protein. (B) Light-induced binding affinity of NBA-ZG-2291 to FIH^ WT . (C) Light-induced binding affinity of NBA-ZG-2291 to FIH^ K106A . […] TEXT PRINTED IN THE PICTURE: (B) NBA-ZG-2291: Binding affinity to FIH^WT: Ki (nM): 414 ± 14 (Irradtion time (min): 0); Binding affinity to FIH^WT: Ki (nM): 74.1 ± 1.6 (Irradtion time (min): 15); Binding affinity to FIH^WT: Ki (nM): 46.7 ± 1.4 (Irradtion time (min): 30); Binding affinity to FIH^WT: Ki (nM): 33.2 ± 0.6 (Irradtion time (min): 60); Binding affinity to FIH^WT: Ki (nM): 30.2 ± 2.0 (Irradtion time (min): 90); Binding affinity to FIH^WT: Ki (nM): 32.1 ± 0.7 (Irradtion time (min): 120) | (B) Neg-1: Binding affinity to FIH^WT: Ki (nM): 423 ± 7 (Irradtion time (min): 0); Binding affinity to FIH^WT: Ki (nM): 408 ± 30 (Irradtion time (min): 15); Binding affinity to FIH^WT: Ki (nM): 459 ± 32 (Irradtion time (min): 30); Binding affinity to FIH^WT: Ki (nM): 427 ± 17 (Irradtion time (min): 60); Binding affinity to FIH^WT: Ki (nM): 396 ± 29 (Irradtion time (min): 90); Binding affinity to FIH^WT: Ki (nM): 428 ± 15 (Irradtion time (min): 120) | (B) Neg-2: Binding affinity to FIH^WT: Ki (nM): 742 ± 65 (Irradtion time (min): 0); Binding affinity to FIH^WT: Ki (nM): 799 ± 69 (Irradtion time (min): 15); Binding affinity to FIH^WT: Ki (nM): 758 ± 13 (Irradtion time (min): 30); Binding affinity to FIH^WT: Ki (nM): 744 ± 30 (Irradtion time (min): 60); Binding affinity to FIH^WT: Ki (nM): 788 ± 36 (Irradtion time (min): 90); Binding affinity to FIH^WT: Ki (nM): 786 ± 35 (Irradtion time (min): 120) | (C) NBA-ZG-2291: Binding affinity to FIH^K106A: Ki (nM): 442 ± 12 (Irradtion time (min): 0); Binding affinity to FIH^K106A: Ki (nM): 427 ± 22 (Irradtion time (min): 15); Binding affinity to FIH^K106A: Ki (nM): 426 ± 7 (Irradtion time (min): 30); Binding affinity to FIH^K106A: Ki (nM): 420 ± 11 (Irradtion time (min): 60); Binding affinity to FIH^K106A: Ki (nM): 418 ± 5 (Irradtion time (min): 90); Binding affinity to FIH^K106A: Ki (nM): 424 ± 12 (Irradtion time (min): 120) | (C) Neg-1: Binding affinity to FIH^K106A: Ki (nM): 271 ± 14 (Irradtion time (min): 0); Binding affinity to FIH^K106A: Ki (nM): 275 ± 15 (Irradtion time (min): 15); Binding affinity to FIH^K106A: Ki (nM): 268 ± 25 (Irradtion time (min): 30); Binding affinity to FIH^K106A: Ki (nM): 266 ± 22 (Irradtion time (min): 60); Binding affinity to FIH^K106A: Ki (nM): 264 ± 41 (Irradtion time (min): 90); Binding affinity to FIH^K106A: Ki (nM): 270 ± 3 (Irradtion time (min): 120) | (C) Neg-2: Binding affinity to FIH^K106A: Ki (nM): 567 ± 37 (Irradtion time (min): 0); Binding affinity to FIH^K106A: Ki (nM): 548 ± 61 (Irradtion time (min): 15); Binding affinity to FIH^K106A: Ki (nM): 521 ± 50 (Irradtion time (min): 30); Binding affinity to FIH^K106A: Ki (nM): 627 ± 17 (Irradtion time (min): 60); Binding affinity to FIH^K106A: Ki (nM): 565 ± 10 (Irradtion time (min): 90); Binding affinity to FIH^K106A: Ki (nM): 552 ± 38 (Irradtion time (min): 120) […]
3. Experimental procedures
3.1 Fluorescence polarization (FP) assays1 with FIHWT and FIHK106A pET28a vectors encoding for full-length FIH with an N-terminal His6 tag or for FIH (K106A) with an N-terminal His6 tag were purchased from Nanjing Zoonbio Biotechnology. Both the FIHWT and FIHK106A protein were expressed from the respective plasmid in Escherichia coli BL21 at 20 °C for 16 h. E. coli cells were lysed and the lysate were clarified by centrifugation. His6- […]
Background: Polarisation of emitted light reports the rotation of a fluorescent probe.

T1 sequence (Q9NWT6 whole entry): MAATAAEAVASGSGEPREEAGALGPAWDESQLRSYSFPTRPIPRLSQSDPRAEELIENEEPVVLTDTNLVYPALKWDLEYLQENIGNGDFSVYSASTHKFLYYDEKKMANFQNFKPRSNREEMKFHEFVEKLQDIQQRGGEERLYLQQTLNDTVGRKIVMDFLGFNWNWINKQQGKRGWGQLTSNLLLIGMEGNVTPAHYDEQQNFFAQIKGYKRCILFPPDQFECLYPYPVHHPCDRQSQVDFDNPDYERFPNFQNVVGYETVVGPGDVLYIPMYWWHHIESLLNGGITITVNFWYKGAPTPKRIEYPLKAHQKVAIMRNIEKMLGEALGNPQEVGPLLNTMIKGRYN

For `O=C(O)CNC(=O)c1ncc(-c2cc(-c3ccc(CO)c([N+](=O)[O-])c3)no2)cc1O` [NBA-ZG-2291], the Ki (irradiation time 0 min) was 0.414 ± 0.014 µM; the Ki (irradiation time 15 min) was determined as 0.0741 ± 0.0016 µM; the Ki (irradiation time 30 min) was ~0.04 µM and 0.0467 µM; the Ki (irradiation time 60 min) is 0.0332 ± 0.0006 µM; the Ki (irradiation time 90 min) turned out to be 0.0302 ± 0.002 µM; the inhibition constant Ki (irradiation time 120 min) worked out at 0.0321 ± 0.0007 µM.

As a reminder, the Ki is a measure of affinity in units of concentration, obtained from inhibition or displacement.
